One data set has as its system Mouse Liver. The note with it: ref ToxRefDB, cited from earlier work.
The target of data set [1] is T1, AR (androgen receptor) (Homo sapiens, UniProt P10275).
T1 construct: expressed in transfected cells
T1 sequence (P10275 1-920): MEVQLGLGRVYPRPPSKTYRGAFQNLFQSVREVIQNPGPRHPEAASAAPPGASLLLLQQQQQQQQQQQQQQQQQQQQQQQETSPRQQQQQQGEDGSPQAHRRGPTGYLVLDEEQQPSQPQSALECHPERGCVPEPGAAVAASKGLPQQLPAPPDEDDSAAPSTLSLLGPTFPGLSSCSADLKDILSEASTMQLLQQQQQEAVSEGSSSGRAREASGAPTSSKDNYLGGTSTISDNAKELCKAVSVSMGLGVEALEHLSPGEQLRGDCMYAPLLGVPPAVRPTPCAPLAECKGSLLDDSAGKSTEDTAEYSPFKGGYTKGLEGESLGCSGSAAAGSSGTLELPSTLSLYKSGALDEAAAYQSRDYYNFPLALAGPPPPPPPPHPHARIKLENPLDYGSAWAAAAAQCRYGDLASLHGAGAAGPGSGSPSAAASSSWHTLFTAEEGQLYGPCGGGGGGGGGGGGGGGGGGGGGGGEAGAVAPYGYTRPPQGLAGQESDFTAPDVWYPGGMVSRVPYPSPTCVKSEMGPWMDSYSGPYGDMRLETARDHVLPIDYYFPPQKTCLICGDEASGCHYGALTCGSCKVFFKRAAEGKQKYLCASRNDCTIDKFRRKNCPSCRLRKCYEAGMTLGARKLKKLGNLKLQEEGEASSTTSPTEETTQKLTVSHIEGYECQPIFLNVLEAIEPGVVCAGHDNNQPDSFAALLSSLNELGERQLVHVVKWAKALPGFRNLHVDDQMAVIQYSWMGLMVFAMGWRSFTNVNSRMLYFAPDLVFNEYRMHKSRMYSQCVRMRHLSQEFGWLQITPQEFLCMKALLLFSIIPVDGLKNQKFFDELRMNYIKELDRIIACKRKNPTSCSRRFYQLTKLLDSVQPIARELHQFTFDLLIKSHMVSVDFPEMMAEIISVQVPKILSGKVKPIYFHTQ
Put plainly: NCGC_AR_Antagonist: GAL4 BLAM Reporter gene assay: AR. The note with it: antagonist mode. The format is cell-based. How it is done: (§1) These assays measure binding constants and enzyme inhibition values for nuclear receptors. The targets include [drawing 67] , [drawing 68] , [drawing 69] , [drawing 70] , [drawing 71] , [drawing 72] , [drawing 73] , [drawing 74] , [drawing 75] and [drawing 76] . Each of the nuclear receptor targets was measured in agonist mode. Assays were run at the NIH Chemical Genomics Center (Rockville, MD).
(§2) Cell-based HTS Assays: These assays measuring binding constants and enzyme inhibition values for nuclear receptors. The targets include AR, ER, FXR, LXR, PPARα, PPARδ, PPARγ, RXRα, RXRβ and PXR. Each of the nuclear receptor targets was measured in both agonist and antagonist mode, but the antagonist data is still undergoing analysis due to possible interference between cytotoxicity and assay activity, so antagonist mode data were not used in the present analysis. Assays were run at the NIH Chemical Genomics Center (Rockville, MD) as part of the Tox21 collaboration. […] The R^2 was required to be ≥0.5. Values where only the highest concentration exceeded 50% activity were excluded to eliminate weak or false positives. Detailed description of the methods, data and analysis methods for this dataset will be presented in a separate publication.

The target in data set [2] is T1, AR (androgen receptor). Nature of the data set: NCGC_AR_Agonist: GAL4 BLAM Reporter gene assay: AR. The format is cell-based. The note with it: agonist mode; scale not given, looks like -log10 of molar active concentration; 0 = no activity. How it is done: as §1, §2
In general terms: Reporter assays use an easily measured gene product as a stand-in for the process of interest.

Where [3] appears, read: mouse chronic study, liver, neoplastic lesion, coded 6 / Inf / 0, code not explained here.
Where [4] appears, read: scale not given, looks like -log10 of molar active concentration, 0 = no activity.

Read-outs that look alike come from different tables or passages of the source.

Turning to `CC(C)N1C(=O)c2ccccc2NS1(=O)=O` [r37], the CHR_Mouse_Liver_3_NeoplasticLesion in the data set with Mouse Liver (setting [3]) is reported as 6.

Regarding `COc1ccc(-c2ccccc2)cc1NNC(=O)OC(C)C` [r38], in the data set on Mouse Liver (setting [3]), the CHR_Mouse_Liver_3_NeoplasticLesion is listed as 6. Besides, the NCGC_AR_Antagonist on AR (androgen receptor) [1] (setting [4]) is given as 0. Further, the NCGC_AR_Agonist on AR (androgen receptor) [2] is listed as 0.

For `Cc1c(COC(=O)C2C(/C=C(\Cl)C(F)(F)F)C2(C)C)cccc1-c1ccccc1` (stereo not shown) [r39], the CHR_Mouse_Liver_3_NeoplasticLesion in the data set on Mouse Liver (setting [3]) is reported as 6.

Compound `CC(C)(c1ccc(O)cc1)c1ccc(O)cc1` [r40] came in with an NCGC_AR_Antagonist on AR (androgen receptor) [1] (setting [4]) of 4.137. The NCGC_AR_Agonist at AR (androgen receptor) [2] worked out at 0.

On to `CCC(C)n1c(=O)[nH]c(C)c(Br)c1=O` (stereo not shown) [r43], for which, in the data set on Mouse Liver (setting [3]), the CHR_Mouse_Liver_3_NeoplasticLesion is listed as 6.

For `N#Cc1cc(Br)c(O)c(Br)c1` [r44], the CHR_Mouse_Liver_3_NeoplasticLesion in the data set with Mouse Liver (setting [3]) is on record as 6. The same compound registered an NCGC_AR_Antagonist on AR (androgen receptor) [1] (setting [4]) of 0. In addition, the NCGC_AR_Agonist on AR (androgen receptor) [2] came out at 0.

In the case of `CC(C)N1C(=O)N(c2ccccc2)CS/C1=N\C(C)(C)C` [r45], in the data set on Mouse Liver (setting [3]), the CHR_Mouse_Liver_3_NeoplasticLesion is 6. Also, the NCGC_AR_Antagonist on AR (androgen receptor) [1] (setting [4]) stood at 0. This compound also showed an NCGC_AR_Agonist at AR (androgen receptor) [2] of 0.

In turn, `CCCCOCN(C(=O)CCl)c1c(CC)cccc1CC` [r46] came in with an NCGC_AR_Antagonist on AR (androgen receptor) [1] (setting [4]) of 4.347. Besides, at AR (androgen receptor) [2], the NCGC_AR_Agonist amounted to 0.

At AR (androgen receptor) [1] (setting [4]), `CCSC(=O)N(CC(C)C)CC(C)C` [r49] gave an NCGC_AR_Antagonist of 0. The NCGC_AR_Agonist at AR (androgen receptor) [2] came to 0.

On to `CNC(=O)Oc1cccc2ccccc12` [r52], for which the CHR_Mouse_Liver_3_NeoplasticLesion in the data set on Mouse Liver (setting [3]) was 6.

As to `CC1=C(C(=O)Nc2ccccc2)SCCO1` [r53], the NCGC_AR_Antagonist at AR (androgen receptor) [1] (setting [4]) worked out at 0. The NCGC_AR_Agonist at AR (androgen receptor) [2] turned out to be 0.

On to `Cc1ccccc1CO[C@@H]1C[C@@]2(C(C)C)CC[C@]1(C)O2` [r64], for which the CHR_Mouse_Liver_3_NeoplasticLesion in the data set on Mouse Liver (setting [3]) was 6. Also, the NCGC_AR_Antagonist on AR (androgen receptor) [1] (setting [4]) stood at 0. Besides, at AR (androgen receptor) [2], the NCGC_AR_Agonist is recorded as 0.

As to `CCCC1COC(Cn2cncn2)(c2ccc(Cl)cc2Cl)O1` (stereo not shown) [r262], in the data set with Mouse Liver (mouse, chronic study), the CHR_Mouse_Liver_3_NeoplasticLesion is on record as 6.

`CC(C)=CC1C(C(=O)OCc2coc(Cc3ccccc3)c2)C1(C)C` (stereo not shown) [r280]: the CHR_Mouse_Liver_3_NeoplasticLesion in the data set on Mouse Liver (chronic study, mouse liver) is reported as 6.

In the case of `CC(C)Oc1cc(-n2nc(C(C)(C)C)oc2=O)c(Cl)cc1Cl` [row 225], the CHR_Mouse_Liver_3_NeoplasticLesion in the data set on Mouse Liver (chronic mouse study, liver) was 6. For the same compound, the NCGC_AR_Antagonist at AR (androgen receptor) [1] came out at 4.167.

The values are drawn from publication PMC3038857, “Using Nuclear Receptor Activity to Stratify Hepatocarcinogens” (PLoS ONE, 2011).
